{"source": "PubChem BioAssay (NCI)", "assay_in_all_cases": "NCI anticancer screen, dose series, 48 h", "key": {"[1]": {"system": "HCT-15 colon"}, "[2]": {"system": "ACHN renal"}, "[3]": {"system": "COLO 205 colon"}, "[4]": {"system": "IGROV1 ovarian"}, "[5]": {"system": "SK-MEL-5 melanoma"}, "[6]": {"system": "CCRF-CEM leukemia"}, "[7]": {"system": "NCI-H522 lung"}, "[8]": {"system": "SK-MEL-2 melanoma"}, "[9]": {"system": "K-562 leukemia"}, "[10]": {"system": "BT-549 breast"}}, "note": "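Five compound concentrations were applied to cells in 96-well plates for 48 hours; endpoints were derived by simple linear interpolation of the resulting dose-response curve. GI50: concentration for 50% inhibition of growth. TGI denotes the concentration required for complete inhibition of growth.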", "data": [{"smiles": "Nc1nc(N)c2c(n1)CCC(S(=O)(=O)c1ccc3ccccc3c1)C2", "note": "(centres undefined)", "values": [{"measurement": "TGI", "setting": "[1]", "value": "> 100", "unit": "µM"}, {"measurement": "TGI", "setting": "[2]", "value": "> 100", "unit": "µM"}, {"measurement": "TGI", "setting": "[3]", "value": 34.5, "unit": "µM"}, {"measurement": "GI50", "setting": "[4]", "value": 1.94, "unit": "µM"}, {"measurement": "TGI", "setting": "[4]", "value": "> 100", "unit": "µM"}, {"measurement": "TGI", "setting": "[5]", "value": 19.2, "unit": "µM"}, {"measurement": "TGI", "setting": "[6]", "value": "> 100", "unit": "µM"}, {"measurement": "GI50", "setting": "[7]", "value": 2.94, "unit": "µM"}, {"measurement": "TGI", "setting": "[7]", "value": 34.5, "unit": "µM"}, {"measurement": "GI50", "setting": "[8]", "value": 9.79, "unit": "µM"}, {"measurement": "TGI", "setting": "[8]", "value": "> 100", "unit": "µM"}, {"measurement": "GI50", "setting": "[9]", "value": 0.315, "unit": "µM"}, {"measurement": "TGI", "setting": "[9]", "value": 63.6, "unit": "µM"}, {"measurement": "TGI", "setting": "[10]", "value": "> 100", "unit": "µM"}]}, {"smiles": "C=CC(=O)N1CCC[C@@H](n2nc(-c3ccc(Oc4ccccc4)cc3)c3c(N)ncnc32)C1", "values": [{"measurement": "GI50", "setting": "[1]", "value": "> 10", "unit": "µM"}, {"measurement": "TGI", "setting": "[1]", "value": "> 10", "unit": "µM"}, {"measurement": "GI50", "setting": "[2]", "value": 0.669, "unit": "µM"}, {"measurement": "TGI", "setting": "[2]", "value": "> 10", "unit": "µM"}, {"measurement": "GI50", "setting": "[3]", "value": "> 10", "unit": "µM"}, {"measurement": "TGI", "setting": "[3]", "value": "> 10", "unit": "µM"}, {"measurement": "GI50", "setting": "[4]", "value": 0.418, "unit": "µM"}, {"measurement": "TGI", "setting": "[4]", "value": "> 10", "unit": "µM"}, {"measurement": "GI50", "setting": "[5]", "value": "> 10", "unit": "µM"}, {"measurement": "TGI", "setting": "[5]", "value": "> 10", "unit": "µM"}, {"measurement": "GI50", "setting": "[6]", "value": "> 10", "unit": "µM"}, {"measurement": "TGI", "setting": "[6]", "value": "> 10", "unit": "µM"}, {"measurement": "GI50", "setting": "[7]", "value": 0.0859, "unit": "µM"}, {"measurement": "TGI", "setting": "[7]", "value": "> 10", "unit": "µM"}, {"measurement": "GI50", "setting": "[8]", "value": "> 10", "unit": "µM"}, {"measurement": "TGI", "setting": "[8]", "value": "> 10", "unit": "µM"}, {"measurement": "GI50", "setting": "[9]", "value": "> 10", "unit": "µM"}, {"measurement": "TGI", "setting": "[9]", "value": "> 10", "unit": "µM"}, {"measurement": "GI50", "setting": "[10]", "value": "> 7.69", "unit": "µM"}, {"measurement": "TGI", "setting": "[10]", "value": "> 10", "unit": "µM"}]}, {"smiles": "O=c1/c(=C\\c2ccc(Br)cc2)sc2n1C(c1ccc(Br)cc1)C1=C(N=2)c2ccc3ccccc3c2OCC1", "note": "(centres undefined)", "values": [{"measurement": "GI50", "setting": "[1]", "value": "> 100", "unit": "µM"}, {"measurement": "TGI", "setting": "[1]", "value": "> 100", "unit": "µM"}, {"measurement": "GI50", "setting": "[2]", "value": "> 100", "unit": "µM"}, {"measurement": "TGI", "setting": "[2]", "value": "> 100", "unit": "µM"}, {"measurement": "GI50", "setting": "[3]", "value": "> 100", "unit": "µM"}, {"measurement": "TGI", "setting": "[3]", "value": "> 100", "unit": "µM"}, {"measurement": "GI50", "setting": "[4]", "value": "> 100", "unit": "µM"}, {"measurement": "TGI", "setting": "[4]", "value": "> 100", "unit": "µM"}, {"measurement": "GI50", "setting": "[5]", "value": "> 100", "unit": "µM"}, {"measurement": "TGI", "setting": "[5]", "value": "> 100", "unit": "µM"}, {"measurement": "GI50", "setting": "[6]", "value": "> 100", "unit": "µM"}, {"measurement": "TGI", "setting": "[6]", "value": "> 100", "unit": "µM"}, {"measurement": "GI50", "setting": "[7]", "value": "> 100", "unit": "µM"}, {"measurement": "TGI", "setting": "[7]", "value": "> 100", "unit": "µM"}, {"measurement": "GI50", "setting": "[8]", "value": "> 100", "unit": "µM"}, {"measurement": "TGI", "setting": "[8]", "value": "> 100", "unit": "µM"}, {"measurement": "GI50", "setting": "[9]", "value": "> 100", "unit": "µM"}, {"measurement": "TGI", "setting": "[9]", "value": "> 100", "unit": "µM"}, {"measurement": "GI50", "setting": "[10]", "value": "> 100", "unit": "µM"}, {"measurement": "TGI", "setting": "[10]", "value": "> 100", "unit": "µM"}]}, {"smiles": "Nc1n[nH]c2ccc([C@@H]3Nc4ccc5cn[nH]c5c4[C@H]4C5CCC(C5)[C@@H]34)cc12", "note": "(some centres undefined)", "values": [{"measurement": "GI50", "setting": "[1]", "value": 0.414, "unit": "µM"}, {"measurement": "TGI", "setting": "[1]", "value": "> 100", "unit": "µM"}, {"measurement": "GI50", "setting": "[2]", "value": 0.797, "unit": "µM"}, {"measurement": "TGI", "setting": "[2]", "value": "> 91.9", "unit": "µM"}, {"measurement": "GI50", "setting": "[3]", "value": 0.332, "unit": "µM"}, {"measurement": "TGI", "setting": "[3]", "value": 3.03, "unit": "µM"}, {"measurement": "GI50", "setting": "[4]", "value": 0.579, "unit": "µM"}, {"measurement": "TGI", "setting": "[4]", "value": 62.2, "unit": "µM"}, {"measurement": "GI50", "setting": "[5]", "value": 0.355, "unit": "µM"}, {"measurement": "TGI", "setting": "[5]", "value": 3.45, "unit": "µM"}, {"measurement": "GI50", "setting": "[6]", "value": 0.343, "unit": "µM"}, {"measurement": "TGI", "setting": "[6]", "value": "> 100", "unit": "µM"}, {"measurement": "GI50", "setting": "[7]", "value": 0.385, "unit": "µM"}, {"measurement": "TGI", "setting": "[7]", "value": 54.6, "unit": "µM"}, {"measurement": "GI50", "setting": "[8]", "value": 0.621, "unit": "µM"}, {"measurement": "TGI", "setting": "[8]", "value": "> 100", "unit": "µM"}, {"measurement": "GI50", "setting": "[9]", "value": 0.252, "unit": "µM"}, {"measurement": "TGI", "setting": "[9]", "value": "> 100", "unit": "µM"}, {"measurement": "GI50", "setting": "[10]", "value": 0.755, "unit": "µM"}, {"measurement": "TGI", "setting": "[10]", "value": "> 65.8", "unit": "µM"}]}, {"smiles": "O=C(Nc1cccc(-n2cc(-c3ccncc3)c(-c3ccc(Cl)c(O)c3)n2)c1)Nc1ccc(Cl)c(Cl)c1", "values": [{"measurement": "GI50", "setting": "[1]", "value": 1.23, "unit": "µM"}, {"measurement": "TGI", "setting": "[1]", "value": 29.6, "unit": "µM"}, {"measurement": "GI50", "setting": "[2]", "value": 1.04, "unit": "µM"}, {"measurement": "TGI", "setting": "[2]", "value": "> 32.5", "unit": "µM"}, {"measurement": "GI50", "setting": "[3]", "value": 3.96, "unit": "µM"}, {"measurement": "TGI", "setting": "[3]", "value": 9.49, "unit": "µM"}, {"measurement": "GI50", "setting": "[4]", "value": 1.77, "unit": "µM"}, {"measurement": "TGI", "setting": "[4]", "value": "> 32.5", "unit": "µM"}, {"measurement": "GI50", "setting": "[5]", "value": 0.57, "unit": "µM"}, {"measurement": "TGI", "setting": "[5]", "value": 1.16, "unit": "µM"}, {"measurement": "GI50", "setting": "[6]", "value": 1.03, "unit": "µM"}, {"measurement": "TGI", "setting": "[6]", "value": "> 32.5", "unit": "µM"}, {"measurement": "GI50", "setting": "[7]", "value": 1.19, "unit": "µM"}, {"measurement": "TGI", "setting": "[7]", "value": 10.6, "unit": "µM"}, {"measurement": "GI50", "setting": "[8]", "value": 1.03, "unit": "µM"}, {"measurement": "TGI", "setting": "[8]", "value": 2.64, "unit": "µM"}, {"measurement": "GI50", "setting": "[9]", "value": 1.41, "unit": "µM"}, {"measurement": "TGI", "setting": "[9]", "value": "> 32.5", "unit": "µM"}, {"measurement": "GI50", "setting": "[10]", "value": 1.7, "unit": "µM"}, {"measurement": "TGI", "setting": "[10]", "value": 16.1, "unit": "µM"}]}, {"smiles": "c1ccc(CC(Nc2cccnc2)c2ccccc2)cc1", "note": "(centres undefined)", "values": [{"measurement": "TGI", "setting": "[1]", "value": "> 100", "unit": "µM"}, {"measurement": "TGI", "setting": "[2]", "value": "> 100", "unit": "µM"}, {"measurement": "TGI", "setting": "[3]", "value": 37, "unit": "µM"}, {"measurement": "TGI", "setting": "[4]", "value": "> 100", "unit": "µM"}, {"measurement": "TGI", "setting": "[5]", "value": 29.4, "unit": "µM"}, {"measurement": "TGI", "setting": "[6]", "value": 46.2, "unit": "µM"}, {"measurement": "TGI", "setting": "[7]", "value": 60.4, "unit": "µM"}, {"measurement": "TGI", "setting": "[8]", "value": 36, "unit": "µM"}, {"measurement": "TGI", "setting": "[9]", "value": "> 100", "unit": "µM"}, {"measurement": "TGI", "setting": "[10]", "value": 65.6, "unit": "µM"}]}]}
